From patent EP0979098B1, “METHOD OF TREATING HYPERPROLACTINEMIA AND PROLACTINOMAS” (Cedars-Sinai Medical Center, priority 1997, dated 1998)
Positions of bridges follow the written chain, without caps; N, C: chain ends. Non-standard residues stand in square brackets, D forms with d. Residues, ends and D or L forms follow the SMILES beside them.

System: Cells derived from six prolactin-secreting pituitary adenomas
Assay: Prolactin secretion from cultured prolactinoma cells (immunoradiometric assay of PRL in medium)
Assay type: cell-based, human
Details: for effect on prolactin release (in words): adenomatous cell cultures of tumor 1, 3 hours; for response of prolactin secretion (in words): cells from the four large tumors (tumors 1, 2, 3 and 4); for suppressed prolactin release / effect on prolactin production (in words): tumor 4 cell cultures; for suppressed prolactin release: p<0.05

| Compound | effect on prolactin release (in words) | response of prolactin secretion (in words) | suppressed prolactin release | effect on prolactin production (in words) | Prolactin release inhibited versus controls (tumor 2 cell cultures, 10 nM, p < 0.0005) | suppressed prolactin (tumor 3 cell cultures, 10 nM and 100 nM, dose dependent, p < 0.05) |
| --- | --- | --- | --- | --- | --- | --- |
| CC[C@@H]1NC(=O)[C@H](CCCCN)NC(=O)[C@@H](Cc2c[nH]c3ccccc23)NC(=O)[C@H](Cc2ccc(O)cc2)NC(=O)[C@@H](NC(=O)[C@H](N)Cc2ccccc2)CSSC[C@@H](C(=O)N[C@H](C(N)=O)[C@@H](C)O)NC1=O [BIM-23023] | did not affect prolactin release |  |  |  |  |  |
| C[C@@H](O)[C@H](NC(=O)[C@H](Cc1ccccc1)NC(=O)[C@@H](NC(=O)[C@H](CCCCN)NC(=O)[C@@H](Cc1c[nH]c2ccccc12)NC(=O)[C@H](Cc1ccccc1)NC(=O)[C@H](Cc1ccccc1)NC(=O)[C@H](N)Cc1ccccc1)[C@@H](C)O)C(N)=O [BIM-23052, H-D-Phe-Phe-Phe-D-Trp-Lys-Thr-Phe-Thr-NH2] (H-[dF]FF[dW]KTFT-NH2) |  | suppression of prolactin secretion | more than 30% |  |  |  |
| CC[C@@H]1NC(=O)[C@H](CCCCN)NC(=O)[C@@H](Cc2c[nH]c3ccccc23)NC(=O)[C@H](Cc2ccc(O)cc2)NC(=O)[C@@H](NC(=O)[C@@H](Cc2ccccc2)NC(=O)CN2CCN(CCO)CC2)CSSC[C@@H](C(=O)N[C@H](C(N)=O)[C@@H](C)O)NC1=O [BIM-23190] | did not affect prolactin release | failed to respond |  | modestly stimulated prolactin production |  |  |
| CC[C@@H]1NC(=O)[C@H](CCCCN)NC(=O)[C@@H](Cc2c[nH]c3ccccc23)NC(=O)[C@H](Cc2ccc(O)cc2)NC(=O)[C@@H](NC(=O)[C@@H](Cc2ccccc2)NS(=O)(=O)CCN2CCN(CCO)CC2)CSSC[C@@H](C(=O)N[C@H](C(N)=O)[C@@H](C)O)NC1=O [BIM-23197] | did not affect prolactin release | failed to respond |  | modestly stimulated prolactin production |  |  |
| C[C@@H](O)[C@@H]1NC(=O)[C@H](CCCCN)NC(=O)[C@@H](Cc2c[nH]c3ccccc23)NC(=O)[C@H](Cc2ccccc2)NC(=O)[C@H](Cc2ccccc2)NC(=O)[C@@H](N)CSSC[C@@H](C(N)=O)NC(=O)[C@H](Cc2ccccc2)NC1=O [BIM-23268] (H-CFF[dW]KTFC-NH2; disulfide 1-8) |  | suppression of prolactin secretion | more than 30% |  | 38% | up to 29% |
| CC(C)[C@@H]1NC(=O)[C@H](CCCCN)NC(=O)[C@@H](Cc2c[nH]c3ccccc23)NC(=O)[C@H](Cc2ccc(O)cc2)NC(=O)[C@@H](NC(=O)[C@H](N)Cc2ccc3ccccc3c2)CSSC[C@@H](C(=O)N[C@H](C(N)=O)[C@@H](C)O)NC1=O [Lanreotide] | did not affect prolactin release | failed to respond |  |  |  |  |
| C[C@@H](O)[C@@H]1NC(=O)[C@H](CCCCN)NC(=O)[C@@H](Cc2c[nH]c3ccccc23)NC(=O)[C@H](Cc2ccccc2)NC(=O)[C@@H](NC(=O)[C@H](N)Cc2ccccc2)CSSC[C@@H](C(=O)N[C@H](CO)[C@@H](C)O)NC1=O [Octreotide] |  | failed to respond |  |  |  |  |
